Results: patent US4124578A, “Antiovulatory polypeptides” (American Home Products Corporation, priority 1978, dated 1978)
Non-standard residues stand in square brackets, D forms with d. Residues, ends and D or L forms follow the SMILES beside them. pGlu = O=C1CC[C@@H](C(=O)O)N1

How the values were obtained:
spontaneous ovulation = test: Inhibition of spontaneous ovulation in female rats; format: in vivo, rat; details: subcutaneous injections in oil on afternoon of proestrus, adult female rats; for Number of Ovulating Rats: ovulating/total
Description: (§1) The rats are sacrificed the next morning (estrus), and the number of animals ovulating and the number of ova identified under a disecting microscope are recorded. The absence of, or a significant decrease in, the number of ova is the criterion for an anti-ovulary effect.

[1] = tested on: luteinizing hormone (LH) release; details: in vivo, rat; cited from earlier work
[2] = tested on: Follicle stimulating hormone (FSH) release; details: in vivo, rat; cited from earlier work
[3] = CNS depression noted during the anti-ovulatory test; format: in vivo, rat; details: at the anti-ovulatory dose (6 mg., subcutaneous in oil), female rats
Description: as §1

Row | Molecule | % Inhibition of Ovulation (spontaneous ovulation; Dose 6 mg.) [%] | Number of Ovulating Rats (spontaneous ovulation; Dose 6 mg.) | release of luteinizing hormone (LH) [1] | further results
1 | CCNC(=O)[C@@H]1CCCN1C(=O)[C@H](Cc1c[nH]c2ccccc12)NC(=O)[C@H](CCCNC(=N)N)NC(=O)[C@H](Cc1ccc(O)cc1)NC(=O)[C@@H]1CCC(=O)N1 [Example 9, L-(5-Oxoprolyl)-L-tyrosyl-L-arginyl-L-tryptophyl-N-ethyl-2-prolin amide] (HELM PEPTIDE1{[Glp].Y.R.W.P.[CCN[*:1]]}$$$$V2.0) | 50 | 2/4 | – | –
2 | CC(C)C[C@H](NC(=O)[C@@H](C)NC(=O)CNC(=O)[C@H](Cc1c[nH]c2ccccc12)NC(=O)[C@H](CCCNC(=N)N)NC(=O)[C@H](Cc1ccc(O)cc1)NC(=O)[C@@H]1CCC(=O)N1)C(=O)N[C@@H](CCCNC(=N)N)C(=O)N1CCC[C@H]1C(N)=O [Example 7, L-(5-Oxoprolyl)-L-tyrosyl-L-arginyl-L-tryptophylglycyl-D-alanyl-L-leucyl-L-arginyl-L-prolyl amide] (HELM PEPTIDE1{[Glp].Y.R.W.G.[dA].L.R.P.[am]}$$$$V2.0) | – | – | – | % Inhibition of Ovulation (spontaneous ovulation; Dose 0.5 mg.): 50%; Number of Ovulating Rats (spontaneous ovulation; Dose 0.5 mg.): 3/6
3 | CCNC(=O)[C@@H]1CCCN1C(=O)[C@H](CCCNC(=N)N)NC(=O)[C@H](CC(C)C)NC(=O)[C@@H](C)NC(=O)CNC(=O)[C@H](Cc1c[nH]c2ccccc12)NC(=O)[C@H](CCCNC(=N)N)NC(=O)[C@H](Cc1ccc(O)cc1)NC(=O)[C@@H]1CCC(=O)N1 [Example 5, L-(5-Oxoprolyl)-L-tyrosyl-L-arginyl-L-tryptophylglycyl-D-alanyl-L-leucyl-L-arginyl-N-ethyl-L-prolinamide] (HELM PEPTIDE1{[Glp].Y.R.W.G.[dA].L.R.P.[CCN[*:1]]}$$$$V2.0) | 60 | 2/5 | – | –
4 | [pGlu]YRWGHL-NH2 | – | – | release LH | –
5 | [pGlu]YRW-NH2 | – | – | release luteinizing hormone (LH) | Follicle stimulating hormone (FSH) release [2]: unaffected
6 | CCNC(=O)[C@@H]1CCCN1C(=O)[C@H](CCCNC(=N)N)NC(=O)[C@@H](CC(C)C)NC(=O)C(C)(C)NC(=O)CNC(=O)[C@@H](Cc1c[nH]c2ccccc12)NC(=O)[C@H](CCCNC(=N)N)NC(=O)[C@H](Cc1ccc(O)cc1)NC(=O)[C@@H]1CCC(=O)N1 [Example 3, L-(5-Oxoprolyl)-L-tyrosyl-L-arginyl-D-tryptophylglycyl-(2-methylalanyl)-D-leucyl-L-arginyl-N-ethyl-L-prolinamide] (HELM PEPTIDE1{[Glp].Y.R.[dW].G.[Aib].[dL].R.P.[CCN[*:1]]}$$$$V2.0) | – | – | – | CNS depression [3]: CNS depression is noted at the anti-ovulatory dose
